In patent US20080119491A1, “AMIDINOHETEROCYCLES AS MODULATORS OF INDOLEAMINE 2,3-DIOXYGENASE” (INCYTE CORPORATION, priority 2006, published 2008) one finds IC50 data, which are given here for nine molecules.

The test deals with T1, Human indoleamine 2,3-dioxygenasae (IDO) (Homo sapiens, UniProt P14902).
T1 construct: His tag (N); made in house; host or cells: E. coli
T1 sequence (P14902 whole entry): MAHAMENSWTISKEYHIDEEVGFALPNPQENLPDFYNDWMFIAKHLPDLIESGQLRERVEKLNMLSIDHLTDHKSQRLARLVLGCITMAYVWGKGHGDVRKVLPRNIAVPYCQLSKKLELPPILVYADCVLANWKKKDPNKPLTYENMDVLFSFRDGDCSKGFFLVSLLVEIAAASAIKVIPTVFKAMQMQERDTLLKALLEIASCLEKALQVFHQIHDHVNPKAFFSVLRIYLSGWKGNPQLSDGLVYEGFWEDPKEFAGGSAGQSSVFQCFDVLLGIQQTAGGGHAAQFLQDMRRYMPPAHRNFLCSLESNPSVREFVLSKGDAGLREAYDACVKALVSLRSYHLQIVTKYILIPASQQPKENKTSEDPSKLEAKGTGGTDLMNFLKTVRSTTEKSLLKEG
The test is described as follows: Human indoleamine 2,3-dioxygenase (IDO) enzyme assay. The test is classed as biochemical. The conditions noted are these: 95 nM IDO, 2 mM D-Trp, pH 6.5, room temperature. As to the method:
Human indoleamine 2,3-dioxygenasae (IDO) with an N-terminal His tag was expressed in E. coli and purified to homogeneity. IDO catalyzes the oxidative cleavage of the pyrrole ring of the indole nucleus of tryptophan to yield N′-formylkynurenine. The assays were performed at room temperature as described in the literature using 95 nM IDO and 2 mM D-Trp in the presence of 20 mM ascorbate, 5 μM methylene blue and 0.2 mg/mL catalase in 50 mM potassium phosphate buffer (pH 6.5). The initial reaction rates were recorded by continuously following the absorbance increase at 321 nm due to the formation of N′-formlylkynurenine. See: Sono, M., Taniguchi, T., Watanabe, Y., and Hayaishi, O. (1980) J. Biol. Chem. 255, 1339-1345. […] The symbol “+” indicates […]. The symbol “+++” indicates IC50>[…]
For the molecule `COc1ccc(CNc2nccnc2C(=NO)Nc2cccc(C(F)(F)F)c2)cc1` [Example 1, NA-Hydroxy-3-[(4-methoxybenzyl)amino]-N-[3-(trifluoromethyl)phenyl]-pyrazine-2-carboximidamide], the IC50 was > 10 µM.
As for `Nc1nccnc1C(=NO)Nc1cccc(C(F)(F)F)c1` [Example 2, 3-Amino-N′-hydroxy-N-[3-(trifluoromethyl)phenyl]pyrazine-2-carboximidamide], the concentration for half-maximal inhibition (IC50) is > 10 µM.
The value for `Nc1nccnc1C(=NO)Nc1ccc(F)c(C(F)(F)F)c1` [Example 4, 3-amino-N′-hydroxy-N-[3-(tri-fluoromethyl), 4-fluorophenyl]-pyrazine-2-carboximidamide] was > 10 µM; that for `COc1ccc(CNc2nccnc2C(=NO)Nc2ccc(F)c(Cl)c2)cc1` [Example 5] was > 10 µM.
With `Nc1nccnc1C(=NO)Nc1ccc(F)c(Cl)c1` [Example 6, 3-amino-N′-hydroxy-N-[3-chloro,4-fluorophenyl]pyrazine-2-carbox-imidamide], the IC50 is > 10 µM.
Take `ON=C(Nc1cccc(C(F)(F)F)c1)c1cnccn1` [Example 7, N′-hydroxy-N-[3-(trifluoromethyl)-phenyl]pyrazine-2-carbox-imidamide]: the IC50 was > 10 µM.
On to `ON=C(Nc1cccc(C(F)(F)F)c1)c1cccnc1` [Example 8, N′-hydroxy-N-[3-(trifluoromethyl)-phenyl]pyridine-3-carbox-imidamide], for which the IC50 was > 10 µM.
With `ON=C(Nc1ccc(F)c(Cl)c1)c1cccc(Oc2ccccc2)c1` [Example 10, N-(3-chloro-4-fluorophenyl)-N′-hydroxy-3-phenoxybenzene-carboximidamide], the IC50 was > 10 µM.
Take `Cc1ccc(Cl)cc1CNC(=NO)c1cccnn1` [Example 13, N-(5-chloro-2-methylbenzyl)-N′-hydroxypyridazine-3-carboximidamide]: the IC50 was > 10 µM.
